Consider one molecule from JP2008208074A, “ピラジン誘導体を有効成分とする抗がん剤” (Toray Industries Inc, priority 2007, dated 2008).

The test system of data set [1] is tumour derived from mouse colon cancer cell line Colon26 [マウス結腸癌細胞株であるColon26細胞由来の腫瘍]. As to the kind of experiment: Tumour growth suppression in mouse colon cancer model (Example 2). As to conditions: sodium salt of Reference Example 72; BALB/c mice, male, Colon26 tumour s.c.; 20 mg/kg i.v. once daily day 0-3; n=7; day 3. In kind it is in vivo.
A short description of data set [2]: Body weight and side effects in mouse colon cancer model (Example 2). In kind it is in vivo. As to conditions: sodium salt of Reference Example 72, 20 mg/kg i.v. once daily day 0-3.

Structures are written as SMILES.

`O=C(O)Cc1ccn(-c2cncc(-n3ncc4ccc(NC5CCCC5)cc43)n2)c1` [参考例72, 2-(1-(6-(6-(シクロペンチルアミノ)-1H-インダゾール-1-イル)ピラジン-2-イル)-1H-ピロール-3-イル)酢酸, ナトリウム塩]: in data set [1], the “suppression of estimated tumour volume compared with control group” value was 29%. Further, the “body weight difference between treated and control group” value in data set [2] (n=7, day 4, result in words) is listed as “差は認められなかった”. Also, the body weight in data set [2] (BALB/c mice with Colon26 tumour, n=7, weighed day 4, control group 22.9±0.5 g) was 22.7 ± 0.5 g. The side effects entry in data set [2] (mouse, individual level, concluded from body weight, result in words) is recorded as “副作用を示すことなく”.
